# Values joined by “and” are separate entries in the source; they are usually repeats but may differ in a detail not shown here. Identical values can stand only once.
# What was measured:
# [1] = tested on: spleen T cells, B cells and NK cells; test: Immunophenotyping of splenocytes by flow cytometry; format: in vivo, BALB/c mice
# Experimental: In general, the immunophenotyping technique consisted briefly of isolating cells from the peripheral blood or an organ (spleen or thymus), labeling them with a panel of antibodies specific for certain antigens of the membrane, and allowing to quantify the different populations. Analysis was performed by flow cytometry since antibodies were conjugated with a fluorochrome (Longbardi, Givan, A., 1994, Flow cytometry. First principles, Wiley-Liss Inc. New York.).
# To immunophenotype immune cells, splenocytes were diluted to a concentration of […]. A total of 1×10^6 cells were distributed in a V-shape 96 well plate. A total of 7 wells were necessary for each sample. Plates were centrifuged 5 minutes at 1200 rpm. Supernatant was discarded and pellet were vortexed. Monoclonal antibodies were distributed in each wells according to the following set up:
# The antibodies used are commercially available from Becton Dickinson (San Jose, Calif.). The cells were incubated with the antibodies for 30 minutes on ice, washed three times with D-PBS+1% BSA, spun at 1200 rpm for 5 minutes using a multichannel pipette, suspended in 1 ml of paraformaldehyde 2% (v/v), and transferred into flow cytometry tubes. Samples were analyzed using EPICS XL from Beckman Coulter flow cytometer. Results were expressed as percentage of the population expressing the specific surface antigen. Live population of cells were gated upon using forward scatter (FS) vs. side scatter (SS) to distinguish live cells from dead cells. A total of 10,000 gated cells were counted for statistical relevance. The FL1 band pass filter (set at 525 nm) was used to detect fluoroscein isothiocyanate (FITC) fluorescence. The FL2 band pass filter (set at 575 nm) was used to detect phycoerythrin (PE) fluorescence. The cursors are set accordingly to delineate the positive region. This region should be relative to 1% of the unstained control (cell control). Results are expressed as % of positive population expressing the specific surface antigens. Student's T test was performed between the control group and the treated group. The p value was calculated for statistical significance.
# NK cells = test: NK cell activity, standard 51Cr release assay with YAC-1 target cells; format: in vivo, BALB/c mice; set-up: NK activity (%): concentration or dose not given beside the values; conditions: for NK activity (%): % specific lysis, E:T 200:1
# Experimental: NK cell activity was determined by using a standard NK assay (Coligan, J. E. et al. 1993. “In Vitro Assays for mouse lymphocyte function” Chapter 3, Current Protocol in Imnunology, John Wiley & Sons, New York) using YAC-1 cells (ATCC #TIB-160) as target cells. These cells were washed twice with HBSS, counted, and suspended at a concentration of 5×10^6 cells/ml. About 5×10^6 cells were labeled with 100 μCi of ^51Cr. Cells were incubated 90 minutes at 37° C. in a 5% CO2 humidified incubator and then washed three times with RPMI, counted, and suspended at a concentration of 1×10^5 cells/ml in complete RPMI. About 100 μl of target cells (˜1×10^4 cells) was put into each well of a round-bottom 96 wells plate.
# Four dilutions of splenocytes were prepared: 2×10^7 cells/ml, 1×10^7 cells/ml, 0.5×10^7 cells/ml, and 0.25×10^7 cells/ml. A volume of 100 μl of each splenocyte dilution was plated in triplicate with the target cells for a final effector:target (E:T) ratio of 200:1, 100:1, 50:1 and 25:1.
# A maximal control release was prepared in triplicate on each plate by adding 100 μl of 5% Triton X-100 solution instead of effector cells. Spontaneous release was prepared in triplicate on each plate by adding 100 μl of complete RPMI instead of effector cells. Plates were centrifuged and incubated 4 hours at 37° C. in a 5% CO2 humidified incubator. After incubation, the supernatants were collected and the ^51Cr release was determined using a gamma counter. The average cpm count was calculated for each triplicate. The average cpm count for the total and spontaneous release was also calculated. The percentage (%) of specific lysis is calculated using the following formula:
# Where, ER=Experimental release of ^51Cr • TR=Total release of ^51Cr • SR=Spontaneous release of ^51Cr
# The % of specific lysis for every ratio (200:1, 100:1, 50:1 and 25:1) was calculated. A graphic representation of the results is done: specific lysis % versus the ratio to verify the linearity. For BALB/c mice strains which usually show low NK activity, specific lysis corresponding to an E:T ratio of 200:1 is used to represent the data for each animal. The mean NK activity is then calculated for each control and treated group. Student's T test was performed between the control group and the treated group. The p value was calculated for statistical significance.
# In this assay, the effect on the NK activity of feeding Balb/c mice with compound CPDS for short term (6 days) and longer term (30 days) was evaluated. The NK cells are a lymphocyte subset with non specific cytotoxicity activity. Results are presented as the % of specific lysis of target cells for a ratio of 200:1 (Table 8 and FIG. 2). Balb/c mice normally show low NK activity which justifies the choice of the 200:1 ratio for the comparison between groups.
# [2] = 30 days on CPDS diet vs group 1
# [3] = Group 2, 30 days on CPDS diet, Mean ± S.D.
# [4] = Group 2, 30 days on CPDS diet, individual mice
# [5] = Group 6, 6 days on CPDS diet, Mean ± S.D.
# [6] = Group 6, 6 days on CPDS diet, individual mice
smiles,measurement,setting,value
"O=C(O)c1ccc(SSc2ccc(C(=O)O)cn2)nc1 [CPDS, 6,6′-dithiodinicotinic acid]","B cells, variation (%)",[1]; 6 days on CPDS diet vs Group 5,−1.0%
same,"CD4+, variation (%)",[1]; 6 days on CPDS diet vs Group 5,−8.5%
same,"CD8+, variation (%)",[1]; 6 days on CPDS diet vs Group 5,−6.8%
same,"NK cells, variation (%)",[1]; 6 days on CPDS diet vs Group 5,43.5%
same,"Ratio CD4/CD8, variation (%)",[1]; 6 days on CPDS diet vs Group 5,−1.8%
same,"Total T cells, variation (%)",[1]; 6 days on CPDS diet vs Group 5,−8.0%
same,"Immunophenotyping: B cells, effect of CPDS diet","[1]; 6 days, n=3",no significant effect
same,"Immunophenotyping: Ratio CD4/CD8, effect of CPDS diet","[1]; 6 days, n=3",No effect
same,"Immunophenotyping: T CD4+, effect of CPDS diet","[1]; 6 days, n=3",No effect
same,"Immunophenotyping: T CD8+, effect of CPDS diet","[1]; 6 days, n=3",No effect
same,"Immunophenotyping: Total T cells, effect of CPDS diet","[1]; 6 days, n=3",no significant effect
same,"Immunophenotyping: NK cells, effect of CPDS diet","[1]; 6 days, n=3, arrow image = increase",tendency toward an increase
same,"B cells, variation (%)",[1]; [2],−19.9%
same,"CD4+, variation (%)",[1]; [2],−3.9%
same,"CD8+, variation (%)",[1]; [2],−11.0%
same,"NK cells, variation (%)",[1]; [2],69.4%
same,"Ratio CD4/CD8, variation (%)",[1]; [2],7.7%
same,"Total T cells, variation (%)",[1]; [2],−1.2%
same,"Immunophenotyping: T CD4+, effect of CPDS diet","[1]; 30 days, n=8",No effect
same,"Immunophenotyping: Total T cells, effect of CPDS diet","[1]; 30 days, n=8",No effect
same,"Immunophenotyping: T CD8+, effect of CPDS diet","[1]; 30 days, n=8, arrow image = decrease",tendency to decrease
same,"Immunophenotyping: Ratio CD4/CD8, effect of CPDS diet","[1]; 30 days, n=8, arrow image = increase",tendency
same,B cells (%),[1]; [3],23.4 ± 2.0%
same,CD4+ (%),[1]; [3],23.6 ± 2.3%
same,CD8+ (%),[1]; [3],9.6 ± 1.2%
same,NK cells (%),[1]; [3],6.9 ± 4.9%
same,Ratio CD4/CD8,[1]; [3],2.49 ± 0.26
same,Total T cells (%),[1]; [3],38.4 ± 2.9%
same,B cells (%),[1]; [4],24.0% and 25.9% and 25.0% and 21.5% and 23.8% and 22.3% and 24.8% and 20.1%
same,CD4+ (%),[1]; [4],21.7% (2×) and 24.0% and 28.3% and 25.7% and 23.2% and 22.2% and 22.1%
same,CD8+ (%),[1]; [4],8.5% and 9.58% and 10.2% and 11.5% and 9.66% and 7.92% and 8.54% and 10.5%
same,NK cells (%),[1]; [4],16.8% and 4.8% (2×) and 11.9% and 3.72% and 2.6% and 5.56% and 4.76%
same,Ratio CD4/CD8,[1]; [4],2.55 and 2.27 and 2.35 and 2.46 and 2.66 and 2.93 and 2.60 and 2.1
same,Total T cells (%),[1]; [4],35.8% and 36.8% and 39.6% and 44.6% and 39.8% and 37.5% and 36.0% and 37.4%
same,B cells (%),[1]; [5],50.3 ± 0.5%
same,CD4+ (%),[1]; [5],25.8 ± 2.3%
same,CD8+ (%),[1]; [5],13.6 ± 0.9%
same,NK cells (%),[1]; [5],11.9 ± 2.7%
same,Ratio CD4/CD8,[1]; [5],1.90 ± 0.06
same,Total T cells (%),[1]; [5],41.4 ± 2.5%
same,B cells (%),[1]; [6],49.8% and 50.7% and 50.3%
same,CD4+ (%),[1]; [6],26.4% and 23.3% and 27.8%
same,CD8+ (%),[1]; [6],14.0% and 12.6% and 14.2%
same,NK cells (%),[1]; [6],9.7% and 14.1% and 9.1%
same,Ratio CD4/CD8,[1]; [6],1.89 and 1.85 and 1.96
same,Total T cells (%),[1]; [6],42.8% and 38.6% and 42.9%
same,"NK activity, effect of CPDS diet","NK cells; 6 days, vs control",No significant effect
same,"NK activity, variation","NK cells; Group 2, 30 days on CPDS diet vs Group 1",24.7%
same,NK activity (%),NK cells; [3],6.8 ± 1.4%
same,NK activity (%),NK cells; [4],8.7% and 7.9% and 5.0% and 6.9% and 6.3% and 5.6% (2×) and 8.2%
same,"NK activity, variation","NK cells; Group 6, 6 days on CPDS diet vs group 5",−13.1%
same,NK activity (%),NK cells; [5],7.9 ± 2.0%
same,NK activity (%),NK cells; [6],10.2% and 7.0% and 6.6%
